In brackets after ≈: the same amount, converted by molar mass. Read-outs that look alike come from different tables or passages of the source.
Experiments:
[1] = Aqueous solubility of compounds reconstituted at 10 mg/mL in water; conditions: 10 mg/mL in distilled deionized water
MRSA isolates = test: MIC/MBC, CLSI broth microdilution, MRSA isolates; assay type: cell-based, Staphylococcus aureus; conditions: for change of MIC and MBC with the reduction in pH: six MRSA isolates, pH lowered to 5.5
[2] = pH and Ka of 10-g/L aqueous solutions (pH meter); assay type: physicochemical; conditions: 10-g/L solution in distilled, deionized water; for pH of solution: room temperature
[3] = tested on: erythrocytes (sheep blood); test: Hemolytic activity against sheep erythrocytes
[4] = tested on: human dermal fibroblast (HDF) cells; test: alamarBlue cell viability assay, HDF; conditions: HDFs, 24-hour incubation, non-linear regression
[5] = tested on: Staphylococcus epidermidis isolates; test: microbe, parasite or virus in culture; assay type: cell-based
MRSA isolate TCH 1516 [6] = test: Single-step resistance development; assay type: cell-based, Staphylococcus aureus; conditions: TCH 1516 stationary phase; C59 as low as 2× MIC, vancomycin up to 8× MIC
Protocol: For the single-step study, bacteria were grown to the stationary phase as described above. Bacteria at a concentration of 1E9 CFU were then plated onto C59 and vancomycin-loaded plates containing 1×, 2×, 4×, and 8× MIC concentrations of the therapeutic agents with 1% DMSO. Bacteria were incubated at 37°C for 48 hours, and colony counts were enumerated to calculate the frequency of resistance development, as described in the literature ([45], [46]).

[7] = tested on: MRSA isolate SAD05 biofilms; assay type: cell-based, Staphylococcus aureus; conditions: 72-hour biofilms of SAD05, MBEC assay
Streptococcus pyogenes = test: MIC/MBC against Streptococcus pyogenes; assay type: cell-based; conditions: for MBC: Streptococcus pyogenes
[8] = tested on: human bronchial epithelial (16HBE) cells; test: alamarBlue cell viability assay, 16HBE; conditions: 24-hour incubation, non-linear regression
[9] = tested on: MRSA isolates SA LL 06 and TCH 1516; test: Kill kinetics against stationary-phase MRSA; assay type: cell-based, Staphylococcus aureus; conditions: shaking, 37°C
Protocol: MRSA isolates, TCH 1516 and SA LL 06, were grown to the stationary phase, and the rate of bacterial killing was determined. Frozen bacterial stocks were streaked onto TSA plates and grown overnight. A single colony was selected and incubated overnight in LB broth at 37°C with constant orbital shaking at 200 RPM. Next, bacterial suspension was washed twice with 150 mM sodium chloride and resuspended in MH broth at a concentration of 1.2E9 CFU/mL. […] Glass tubes containing 5 mL of bacteria and drug solutions were grown in a shaking incubator at 37°C. At 0, 4, 8, and 24 hours, bacterial suspensions were collected, serially diluted, and plated onto a blood agar plate. Bacteria were allowed to grow for 24 hours and were enumerated to yield colony-forming units per milliliter.

Pseudomonas aeruginosa = test: MIC against Pseudomonas aeruginosa; assay type: cell-based
Enterococcus faecalis = test: MIC/MBC against Enterococcus faecalis; assay type: cell-based
MRSA isolate TCH 1516 [10] = test: Resistance acquisition during serial passage; assay type: cell-based, Staphylococcus aureus; conditions: serial passage, after 21 days
Protocol: MRSA isolate TCH 1516 was grown to the stationary phase (OD650 = 1.0) in 10 mL of MH broth. […] The second highest drug concentration resulting in bacterial growth (OD650 >1.0) was used as the inoculum after a 1:1,000 dilution for subsequent steps, every 24 hours, for up to 21 days.

[11] = 21 Staphylococcus epidermidis isolates
[12] = Staphylococcus aureus, MRSA, pH 5.5, MRSA 0606, pH 5.5
[13] = Staphylococcus aureus, MRSA, pH 5.5, MRSA 0608, pH 5.5
[14] = Staphylococcus aureus, MRSA, pH 5.5, MRSA 0634, pH 5.5
[15] = Staphylococcus aureus, MRSA, pH 5.5, MRSA 0641, pH 5.5
[16] = Staphylococcus aureus, MRSA, pH 5.5, MRSA 0646, pH 5.5
[17] = Staphylococcus aureus, MRSA, pH 5.5, TCH 1516, pH 5.5
[18] = Staphylococcus aureus, MRSA, pH 6.5, MRSA 0606, pH 6.5
[19] = Staphylococcus aureus, MRSA, pH 6.5, MRSA 0608, pH 6.5
[20] = Staphylococcus aureus, MRSA, pH 6.5, MRSA 0634, pH 6.5
[21] = Staphylococcus aureus, MRSA, pH 6.5, MRSA 0641, pH 6.5
[22] = Staphylococcus aureus, MRSA, pH 6.5, MRSA 0646, pH 6.5
[23] = Staphylococcus aureus, MRSA, pH 6.5, TCH 1516, pH 6.5
[24] = Staphylococcus aureus, MRSA, pH 7.4, MRSA 0606, pH 7.4
[25] = Staphylococcus aureus, MRSA, pH 7.4, MRSA 0608, pH 7.4
[26] = Staphylococcus aureus, MRSA, pH 7.4, MRSA 0634, pH 7.4
[27] = Staphylococcus aureus, MRSA, pH 7.4, MRSA 0641, pH 7.4
[28] = Staphylococcus aureus, MRSA, pH 7.4, MRSA 0646, pH 7.4
[29] = Staphylococcus aureus, MRSA, pH 7.4, TCH 1516, pH 7.4
[30] = Streptococcus pyogenes (NR1575)
[31] = ATCC49532, Enterococcus faecalis (ATCC 49532)
[32] = ATCC51575, Enterococcus faecalis (ATCC 51575)

CC(=O)Oc1c(Cl)cc(Cl)cc1-c1cc(Cl)cc(Cl)c1OC(C)=O [C59Ac]
aqueous solubility [1]: moderate aqueous solubility
MBC (MRSA isolates; MRSA 0606, pH 7.4): 8 µg/mL (≈ 19.6 µM)
MIC (MRSA isolates; MRSA 0606, pH 7.4): 4 µg/mL (≈ 9.8 µM)
MBC (MRSA isolates; MRSA 0608, pH 7.4): 12 µg/mL (≈ 29.4 µM)
MIC (MRSA isolates; MRSA 0608, pH 7.4): 4 µg/mL (≈ 9.8 µM)
MBC (MRSA isolates; MRSA 0634, pH 7.4): 4 µg/mL (≈ 9.8 µM)
MIC (MRSA isolates; MRSA 0634, pH 7.4): 4 µg/mL (≈ 9.8 µM)
MBC (MRSA isolates; MRSA 0641, pH 7.4): 12 µg/mL (≈ 29.4 µM)
MIC (MRSA isolates; MRSA 0641, pH 7.4): 4 µg/mL (≈ 9.8 µM)
MBC (MRSA isolates; MRSA 0646, pH 7.4): 8 µg/mL (≈ 19.6 µM)
MIC (MRSA isolates; MRSA 0646, pH 7.4): 4 µg/mL (≈ 9.8 µM)
MBC (MRSA isolates; TCH 1516, pH 7.4): 4 µg/mL (≈ 9.8 µM)
MIC (MRSA isolates; TCH 1516, pH 7.4): 4 µg/mL (≈ 9.8 µM)
change of MIC and MBC with the reduction in pH (MRSA isolates): remained unchanged
acid dissociation constant (Ka) [2]: 2.45 × 10^−12
pH of solution [2]: 6.61

Oc1c(Cl)cc(Cl)cc1-c1cc(Cl)cc(Cl)c1O [C59, 3,3′,5,5′-tetrachloro-[1,1′-biphenyl]−2,2′-diol]
concentrations at which erythrocytes were not lysed ([3]; 1% sheep blood, 1-hour incubation): up to 24 µg/mL
LD50 relative to MIC90 ([3]; higher than MIC90, stated in the hemolysis discussion, cell type not named): 24 fold
LD50 [4]: 56.0 µg/mL
MBC range [5, 11]: 6 to 12 µg/mL
MIC range [5, 11]: 2 to 4 µg/mL
MIC90 ([5]; Staphylococcus epidermidis): 4 µg/mL (≈ 12.3 µM)
MBC ([5]; Staphylococcus epidermidis, read-out: MBC90): 12 µg/mL (≈ 37 µM)
MIC90 (MRSA isolates; Staphylococcus aureus, MRSA, 39 evaluated MRSA isolates, CLSI broth microdilution): 2 µg/mL (≈ 6.17 µM)
MIC (MRSA isolates; Staphylococcus aureus, MRSA, SA LL 06, as given for the kill kinetic assay): 2 µg/mL (≈ 6.17 µM)
MIC (MRSA isolates; Staphylococcus aureus, MRSA, TCH 1516, as given for the kill kinetic assay): 2 µg/mL (≈ 6.17 µM)
MBC (MRSA isolates; [12]): 0.5 µg/mL (≈ 1.54 µM)
MIC (MRSA isolates; [12]): 0.5 µg/mL (≈ 1.54 µM)
MBC (MRSA isolates; [13]): 0.5 µg/mL (≈ 1.54 µM)
MIC (MRSA isolates; [13]): 0.5 µg/mL (≈ 1.54 µM)
MBC (MRSA isolates; [14]): 0.5 µg/mL (≈ 1.54 µM)
MIC (MRSA isolates; [14]): 0.5 µg/mL (≈ 1.54 µM)
MBC (MRSA isolates; [15]): 0.5 µg/mL (≈ 1.54 µM)
MIC (MRSA isolates; [15]): 0.5 µg/mL (≈ 1.54 µM)
MBC (MRSA isolates; [16]): 0.5 µg/mL (≈ 1.54 µM)
MIC (MRSA isolates; [16]): 0.5 µg/mL (≈ 1.54 µM)
MBC (MRSA isolates; [17]): 0.5 µg/mL (≈ 1.54 µM)
MIC (MRSA isolates; [17]): 0.5 µg/mL (≈ 1.54 µM)
MBC (MRSA isolates; Staphylococcus aureus, MRSA, pH 5.5, read-out: Average MBC, average of six MRSA isolates, pH 5.5): 0.5 µg/mL (≈ 1.54 µM)
MIC (MRSA isolates; Staphylococcus aureus, MRSA, pH 5.5, read-out: Average MIC, average of six MRSA isolates, pH 5.5): 0.5 µg/mL (≈ 1.54 µM)
MBC (MRSA isolates; [18]): 6 µg/mL (≈ 18.5 µM)
MIC (MRSA isolates; [18]): 1 µg/mL (≈ 3.09 µM)
MBC (MRSA isolates; [19]): 2 µg/mL (≈ 6.17 µM)
MIC (MRSA isolates; [19]): 2 µg/mL (≈ 6.17 µM)
MBC (MRSA isolates; [20]): 4 µg/mL (≈ 12.3 µM)
MIC (MRSA isolates; [20]): 1 µg/mL (≈ 3.09 µM)
MBC (MRSA isolates; [21]): 4 µg/mL (≈ 12.3 µM)
MIC (MRSA isolates; [21]): 1 µg/mL (≈ 3.09 µM)
MBC (MRSA isolates; [22]): 4 µg/mL (≈ 12.3 µM)
MIC (MRSA isolates; [22]): 1 µg/mL (≈ 3.09 µM)
MBC (MRSA isolates; [23]): 4 µg/mL (≈ 12.3 µM)
MIC (MRSA isolates; [23]): 1 µg/mL (≈ 3.09 µM)
MBC (MRSA isolates; Staphylococcus aureus, MRSA, pH 6.5, read-out: Average MBC, average of six MRSA isolates, pH 6.5): 4 µg/mL (≈ 12.3 µM)
MIC (MRSA isolates; Staphylococcus aureus, MRSA, pH 6.5, read-out: Average MIC, average of six MRSA isolates, pH 6.5): 1.2 µg/mL (≈ 3.7 µM)
MBC (MRSA isolates; [24]): 4 µg/mL (≈ 12.3 µM)
MIC (MRSA isolates; [24]): 2 µg/mL (≈ 6.17 µM)
MBC (MRSA isolates; [25]): 6 µg/mL (≈ 18.5 µM)
MIC (MRSA isolates; [25]): 2 µg/mL (≈ 6.17 µM)
MBC (MRSA isolates; [26]): 8 µg/mL (≈ 24.7 µM)
MIC (MRSA isolates; [26]): 2 µg/mL (≈ 6.17 µM)
MBC (MRSA isolates; [27]): 8 µg/mL (≈ 24.7 µM)
MIC (MRSA isolates; [27]): 2 µg/mL (≈ 6.17 µM)
MBC (MRSA isolates; [28]): 4 µg/mL (≈ 12.3 µM)
MIC (MRSA isolates; [28]): 2 µg/mL (≈ 6.17 µM)
MBC (MRSA isolates; [29]): 4 µg/mL (≈ 12.3 µM)
MIC (MRSA isolates; [29]): 2 µg/mL (≈ 6.17 µM)
MBC (MRSA isolates; Staphylococcus aureus, MRSA, pH 7.4, read-out: Average MBC, average of six MRSA isolates, pH 7.4): 5.7 µg/mL (≈ 17.6 µM)
MIC (MRSA isolates; Staphylococcus aureus, MRSA, pH 7.4, read-out: Average MIC, average of six MRSA isolates, pH 7.4): 2 µg/mL (≈ 6.17 µM)
MBC (MRSA isolates; Staphylococcus aureus, MRSA, read-out: MBC90, 39 evaluated MRSA isolates, CLSI broth microdilution): 6 µg/mL (≈ 18.5 µM)
change of MIC and MBC with the reduction in pH (MRSA isolates): decreased as much as fourfold
growth on drug-loaded plates (MRSA isolate TCH 1516 [6]): No growth
acid dissociation constant (Ka) [2]: 6.18 × 10^−19
pH of solution [2]: 9.86
concentration that completely eradicated biofilms [7]: 16 µg/mL
MIC (Streptococcus pyogenes; Streptococcus pyogenes (NR1571), read-out: MIC): 6 µg/mL (≈ 18.5 µM)
MIC (Streptococcus pyogenes; [30]): 6 µg/mL (≈ 18.5 µM)
MBC (Streptococcus pyogenes; Streptococcus pyogenes (NR1571)): 24 µg/mL (≈ 74.1 µM)
MBC (Streptococcus pyogenes; [30]): 16 µg/mL (≈ 49.4 µM)
LD50 [8]: 40.2 µg/mL
bacterial killing after 24 hours ([9]; stationary-phase SA LL 06, C59 at 1× and 2× MIC): complete bacterial eradication
bacterial killing after 24 hours ([9]; stationary-phase TCH 1516): did not result in complete bacterial killing
MIC (Pseudomonas aeruginosa; Pseudomonas aeruginosa (PAM57-15)): > 32 µg/mL
MIC (Pseudomonas aeruginosa; Pseudomonas aeruginosa (PAO1)): > 32 µg/mL
MBC (Enterococcus faecalis; [31]): 16 µg/mL (≈ 49.4 µM)
MIC (Enterococcus faecalis; [31]): 8 µg/mL (≈ 24.7 µM)
MBC (Enterococcus faecalis; [32]): 16 µg/mL (≈ 49.4 µM)
MIC (Enterococcus faecalis; [32]): 8 µg/mL (≈ 24.7 µM)
increase in MIC (MRSA isolate TCH 1516 [10]): no change in MIC

Source: publication PMC10913730, “Antimicrobial activity of a natural compound and analogs against multi-drug-resistant Gram-positive pathogens” (Microbiology Spectrum, 2024)
